From ChEMBL document CHEMBL1201861, “Genomics of Drug Sensitity in Cancer screening data, Wellcome Trust Sanger Institute”
Blank lines part the entries; values can stand above or below the compound they belong to.

Tests used:
[1] = system: G-402; test: cells; type: functional, cell-based; details: Homo sapiens
Description: SANGER: Inhibition of human G-402 cell growth in a cell viability assay.

[2] = system: RPMI-6666; test: cells; type: functional, cell-based, Homo sapiens; details: Homo sapiens, RPMI-6666
Description: SANGER: Inhibition of human RPMI-6666 cell growth in a cell viability assay.

[3] = system: BCPAP; test: cells; type: functional, cell-based; details: Homo sapiens;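 note: growth inhibition of BCPAP cells, read out in a cell viability assay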
Description: SANGER: Inhibition of human BCPAP cell growth in a cell viability assay.

[4] = system: REH; test: cells; type: functional, cell-based, Homo sapiens; details: Homo sapiens, REH;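 note: growth inhibition of REH cells determined with a cell viability read-out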
Description: SANGER: Inhibition of human REH cell growth in a cell viability assay.

[5] = system: NB1; test: cells; type: functional, cell-based, Homo sapiens; details: Homo sapiens, NB1;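 note: reduction of NB1 cell proliferation, read out with a viability assay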
Description: SANGER: Inhibition of human NB1 cell growth in a cell viability assay.

[6] = system: SK-OV-3; test: cells; type: functional, cell-based; details: Homo sapiens;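 note: growth inhibition of SK-OV-3 human cells, read out with a cell viability assay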
Description: SANGER: Inhibition of human SK-OV-3 cell growth in a cell viability assay.

[7] = system: SW1463; test: cells; type: functional, cell-based; details: Homo sapiens;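 note: growth inhibition of SW1463 cells, determined with a cell viability assay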
Description: SANGER: Inhibition of human SW1463 cell growth in a cell viability assay.

[8] = system: EVSA-T; test: cells; type: functional, cell-based, Homo sapiens; details: Homo sapiens, EVSA-T;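 note: growth inhibition of EVSA-T cells, read out with a cell viability assay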
Description: SANGER: Inhibition of human EVSA-T cell growth in a cell viability assay.

[9] = system: NCI-H719; test: cells; type: functional, cell-based, Homo sapiens; details: Homo sapiens, NCI-H719;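 note: growth inhibition of the cultured cell line, read out with a viability assay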
Description: SANGER: Inhibition of human NCI-H719 cell growth in a cell viability assay.

[10] = system: NCI-H2171; test: cells; type: functional, cell-based, Homo sapiens; details: Homo sapiens, NCI-H2171;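 note: growth inhibition of human NCI-H2171 cells, read out by a cell viability assay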
Description: SANGER: Inhibition of human NCI-H2171 cell growth in a cell viability assay.

[11] = system: DoTc2-4510; test: cells; type: functional, cell-based; details: Homo sapiens
[12] = system: SiHa; test: cells; type: functional, cell-based; details: Homo sapiens;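 note: Viability-based readout of growth inhibition in SiHa cells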
Description: SANGER: Inhibition of human SiHa cell growth in a cell viability assay.

[13] = system: EC-GI-10; test: cells; type: functional, cell-based, Homo sapiens; details: Homo sapiens, EC-GI-10
Description: SANGER: Inhibition of human EC-GI-10 cell growth in a cell viability assay.

[14] = system: DOK; test: cells; type: functional, cell-based; details: Homo sapiens;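 note: cell viability assay read-out, values reflect inhibition of cell growth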
Description: SANGER: Inhibition of human DOK cell growth in a cell viability assay.

[15] = system: OAW-28; test: cells; type: functional, cell-based; details: Homo sapiens;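 note: growth inhibition of OAW-28 cells, read out with a cell viability assay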
Description: SANGER: Inhibition of human OAW-28 cell growth in a cell viability assay.

[16] = system: C-33-A; test: cells; type: functional, cell-based; details: Homo sapiens;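 note: cell viability assay measuring growth inhibition of C-33-A cells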
Description: SANGER: Inhibition of human C-33-A cell growth in a cell viability assay.

[17] = system: RPMI-7951; test: cells; type: functional, cell-based; details: Homo sapiens
Description: SANGER: Inhibition of human RPMI-7951 cell growth in a cell viability assay.

[18] = system: SN12C; test: cells; type: functional, cell-based; details: Homo sapiens;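 note: growth inhibition of human SN12C cells, measured by a cell viability assay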
Description: SANGER: Inhibition of human SN12C cell growth in a cell viability assay.

[19] = system: BHY; test: cells; type: functional, cell-based; details: Homo sapiens;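 note: cell growth inhibition read out by a viability assay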
Description: SANGER: Inhibition of human BHY cell growth in a cell viability assay.

[20] = system: HOS; test: cells; type: functional, cell-based; details: Homo sapiens;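 note: growth inhibition of human HOS cells, read out with a cell viability assay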
Description: SANGER: Inhibition of human HOS cell growth in a cell viability assay.

[21] = system: MC-IXC; test: cells; type: functional, cell-based; details: Homo sapiens;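 note: growth inhibition of MC-IXC cells, read out with a cell viability assay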
Description: SANGER: Inhibition of human MC-IXC cell growth in a cell viability assay.

[22] = system: MDA-MB-453; test: cells; type: functional, cell-based; details: Homo sapiens
Description: SANGER: Inhibition of human MDA-MB-453 cell growth in a cell viability assay.

[23] = system: TALL-1; test: cells; type: functional, cell-based, Homo sapiens; details: Homo sapiens, TALL-1;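 note: growth inhibition of cultured human TALL-1 cells, read out by a cell viability assay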
Description: SANGER: Inhibition of human TALL-1 cell growth in a cell viability assay.

[24] = system: OAW-42; test: cells; type: functional, cell-based; details: Homo sapiens;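 note: growth inhibition of OAW-42 cells, read out with a cell viability assay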
Description: SANGER: Inhibition of human OAW-42 cell growth in a cell viability assay.

[25] = system: LB373-MEL-D; test: cells; type: functional, cell-based, Homo sapiens; details: Homo sapiens, LB373-MEL-D;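 note: growth inhibition of the cell line, read out in a cell viability assay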
Description: SANGER: Inhibition of human LB373-MEL-D cell growth in a cell viability assay.

[26] = system: MKN-7; test: cells; type: functional, cell-based; details: Homo sapiens;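 note: growth inhibition of MKN-7 cells, read out with a cell viability assay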
Description: SANGER: Inhibition of human MKN7 cell growth in a cell viability assay.

[27] = system: SR; test: cells; type: functional, cell-based, Homo sapiens; details: Homo sapiens, SR
Description: SANGER: Inhibition of human SR cell growth in a cell viability assay.

[28] = system: NCI-H596; test: cells; type: functional, cell-based; details: Homo sapiens;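 note: growth inhibition of NCI-H596 cells, read out with a cell viability assay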
Description: SANGER: Inhibition of human NCI-H596 cell growth in a cell viability assay.

[29] = system: UMC-11; test: cells; type: functional, cell-based; details: Homo sapiens;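 note: growth inhibition of UMC-11 cells, read out with a cell viability assay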
Description: SANGER: Inhibition of human UMC-11 cell growth in a cell viability assay.

[30] = system: A204; test: cells; type: functional, cell-based; details: Homo sapiens;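 note: growth inhibition of human A204 cells, read out with a cell viability assay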
Description: SANGER: Inhibition of human A204 cell growth in a cell viability assay.

[31] = system: HT-1376; test: cells; type: functional, cell-based; details: Homo sapiens
Description: SANGER: Inhibition of human HT-1376 cell growth in a cell viability assay.

[32] = system: NCI-H2405; test: cells; type: functional, cell-based; details: Homo sapiens;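 note: growth inhibition of the human cell line, read out with a cell viability assay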
Description: SANGER: Inhibition of human NCI-H2405 cell growth in a cell viability assay.

[33] = system: JIYOYE; test: cells; type: functional, cell-based, Homo sapiens; details: Homo sapiens, JIYOYE
Description: SANGER: Inhibition of human JiyoyeP-2003 cell growth in a cell viability assay.

[34] = system: NCI-H2452; test: cells; type: functional, cell-based; details: Homo sapiens;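 note: growth inhibition of NCI-H2452 cells, read out with a cell viability assay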
Description: SANGER: Inhibition of human NCI-H2452 cell growth in a cell viability assay.

[35] = system: NCI-H2052; test: cells; type: functional, cell-based; details: Homo sapiens;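 note: growth inhibition of NCI-H2052 cells, read out with a cell viability assay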
Description: SANGER: Inhibition of human NCI-H2052 cell growth in a cell viability assay.

[36] = system: SUP-T1; test: cells; type: functional, cell-based, Homo sapiens; details: Homo sapiens, SUP-T1;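 note: growth inhibition of human SUP-T1 cells, read out as cell viability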
Description: SANGER: Inhibition of human SUP-T1 cell growth in a cell viability assay.

[37] = system: C32; test: cells; type: functional, cell-based; details: Homo sapiens;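 note: cell viability assay, with IC50 reflecting inhibition of C32 cell growth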
Description: SANGER: Inhibition of human C32 cell growth in a cell viability assay.

[38] = system: DMS-153; test: cells; type: functional, cell-based, Homo sapiens; details: Homo sapiens, DMS-153
Description: SANGER: Inhibition of human DMS-153 cell growth in a cell viability assay.

[39] = system: DMS-273; test: cells; type: functional, cell-based; details: Homo sapiens
Description: SANGER: Inhibition of human DMS-273 cell growth in a cell viability assay.

[40] = system: G-361; test: cells; type: functional, cell-based; details: Homo sapiens
[41] = system: RPMI 8402; test: SANGER: Inhibition of human RPMI-8402 cell growth in a cell viability assay.; type: functional, cell-based; details: Homo sapiens, RPMI 8402
[42] = system: IGROV-1; test: cells; type: functional, cell-based; details: Homo sapiens;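 note: reduction of IGROV-1 cell growth, read out with a viability assay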
Description: SANGER: Inhibition of human IGROV-1 cell growth in a cell viability assay.

[43] = system: SCC-9; test: cells; type: functional, cell-based; details: Homo sapiens;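 note: Read-out is a cell viability assay, with values giving inhibition of cell growth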
Description: SANGER: Inhibition of human SCC-9 cell growth in a cell viability assay.

[44] = system: AU565; test: cells; type: functional, cell-based; details: Homo sapiens;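 note: cell viability assay measuring growth inhibition of human AU565 cells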
Description: SANGER: Inhibition of human AU565 cell growth in a cell viability assay.

[45] = system: HCC38; test: cells; type: functional, cell-based; details: Homo sapiens;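 note: cell viability assay on the human HCC38 cell line, with IC50 marking the concentration that inhibits cell growth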
Description: SANGER: Inhibition of human HCC38 cell growth in a cell viability assay.

[46] = system: DG-75; test: cells; type: functional, cell-based, Homo sapiens; details: Homo sapiens, DG-75;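 note: growth inhibition of DG-75 cells, read out with a cell viability assay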
Description: SANGER: Inhibition of human DG-75 cell growth in a cell viability assay.

[47] = system: NCI-H28; test: cells; type: functional, cell-based; details: Homo sapiens;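 note: growth inhibition of human NCI-H28 cells, read out as cell viability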
Description: SANGER: Inhibition of human NCI-H28 cell growth in a cell viability assay.

[48] = system: NCI-H1522; test: cells; type: functional, cell-based, Homo sapiens; details: Homo sapiens, NCI-H1522;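 note: growth inhibition of NCI-H1522 cells, read out with a cell viability assay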
Description: SANGER: Inhibition of human NCI-H1522 cell growth in a cell viability assay.

[49] = system: CAL-39; test: cells; type: functional, cell-based; details: Homo sapiens;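 note: cell viability assay measuring growth inhibition of CAL-39 cells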
Description: SANGER: Inhibition of human CAL-39 cell growth in a cell viability assay.

[50] = system: SU-DHL-1; test: SANGER: Inhibition of human SU-DHL-1 cell growth in a cell viability assay.; type: functional, cell-based; details: Homo sapiens, SU-DHL-1
[51] = system: NCI-H510A; test: cells; type: functional, cell-based, Homo sapiens; details: Homo sapiens, NCI-H510A;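 note: growth inhibition of NCI-H510A cells, read out with a cell viability assay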
Description: SANGER: Inhibition of human NCI-H510A cell growth in a cell viability assay.

[52] = system: HuO-3N1; test: cells; type: functional, cell-based; details: Homo sapiens;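 note: cell viability readout used to measure how strongly compounds suppress proliferation of human HuO-3N1 cells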
Description: SANGER: Inhibition of human HuO-3N1 cell growth in a cell viability assay.

[53] = system: EFO-27; test: cells; type: functional, cell-based; details: Homo sapiens;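 note: growth inhibition of EFO-27 cells, read out with a cell viability assay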
Description: SANGER: Inhibition of human EFO-27 cell growth in a cell viability assay.

[54] = system: NCI-H441; test: cells; type: functional, cell-based; details: Homo sapiens;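 note: growth inhibition of NCI-H441 cells, read out with a cell viability assay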
Description: SANGER: Inhibition of human NCI-H441 cell growth in a cell viability assay.

[55] = system: HCT-116; test: cells; type: functional, cell-based; details: Homo sapiens
Description: SANGER: Inhibition of human HCT-116 cell growth in a cell viability assay.

[56] = system: BT-20; test: cells; type: functional, cell-based; details: Homo sapiens;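 note: cell viability assay measuring suppression of growth in human BT-20 cells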
Description: SANGER: Inhibition of human BT-20 cell growth in a cell viability assay.

[57] = system: HCC1419; test: cells; type: functional, cell-based; details: Homo sapiens;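 note: growth inhibition of human HCC1419 cells, read out as cell viability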
Description: SANGER: Inhibition of human HCC1419 cell growth in a cell viability assay.

[58] = system: NCI-H630; test: cells; type: functional, cell-based; details: Homo sapiens;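 note: growth inhibition of NCI-H630 cells, read out with a cell viability assay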
Description: SANGER: Inhibition of human NCI-H630 cell growth in a cell viability assay.

Structure (SMILES): CCCCCCCCCCCC1=C(O)C(=O)C=C(O)C1=O [EMBELIN]
- IC50 [1]: 11300 nM
- IC50 [2]: 8670 nM
- IC50 [3]: 13700 nM
- IC50 [4]: 8620 nM
- IC50 [5]: > 32000 nM
- IC50 [6]: 10900 nM
- IC50 [7]: > 32000 nM
- IC50 [8]: > 32000 nM
- IC50 [9]: > 32000 nM
- IC50 [10]: > 32000 nM
- IC50 [11]: 14200 nM
- IC50 [12]: > 32000 nM
- IC50 [13]: > 32000 nM
- IC50 [14]: 11800 nM
- IC50 [15]: 20000 nM
- IC50 [16]: > 32000 nM
- IC50 [17]: 25600 nM
- IC50 [18]: 26600 nM
- IC50 [19]: 6030 nM
- IC50 [20]: 15300 nM
- IC50 [21]: 5390 nM
- IC50 [22]: > 32000 nM
- IC50 [23]: > 32000 nM
- IC50 [24]: > 32000 nM
- IC50 [25]: 24200 nM
- IC50 [26]: > 32000 nM
- IC50 [27]: 28200 nM
- IC50 [28]: 15400 nM
- IC50 [29]: > 32000 nM
- IC50 [30]: 17400 nM
- IC50 [31]: 5900 nM
- IC50 [32]: 8000 nM
- IC50 [33]: 6940 nM
- IC50 [34]: > 32000 nM
- IC50 [35]: 8530 nM
- IC50 [36]: 7320 nM
- IC50 [37]: 2830 nM
- IC50 [38]: > 32000 nM
- IC50 [39]: 4060 nM
- IC50 [40]: 5900 nM
- IC50 [41]: 4050 nM
- IC50 [42]: 5640 nM
- IC50 [43]: > 32000 nM
- IC50 [44]: 9910 nM
- IC50 [45]: 17900 nM
- IC50 [46]: > 32000 nM
- IC50 [47]: 26000 nM
- IC50 [48]: 30600 nM
- IC50 [49]: 4480 nM
- IC50 [50]: > 32000 nM
- IC50 [51]: > 32000 nM
- IC50 [52]: > 32000 nM
- IC50 [53]: > 32000 nM
- IC50 [54]: 6010 nM
- IC50 [55]: 28500 nM
- IC50 [56]: 14500 nM
- IC50 [57]: > 32000 nM

- IC50 [21]: 266 nM
- IC50 [28]: > 512 nM
- IC50 [29]: > 512 nM
- IC50 [32]: 351 nM
- IC50 [35]: > 512 nM
- IC50 [39]: 324 nM
- IC50 [40]: 209 nM
- IC50 [42]: > 512 nM
- IC50 [50]: > 512 nM
- IC50 [58]: > 512 nM
Structure (SMILES): CO[C@@H]1[C@H](N(C)C(=O)c2ccccc2)C[C@H]2O[C@]1(C)n1c3ccccc3c3c4c(c5c6ccccc6n2c5c31)C(=O)NC4 [MIDOSTAURIN]
- IC50 [41]: > 512 nM

Structure (SMILES): C/C(=C\c1csc(C)n1)[C@@H]1C[C@@H]2O[C@]2(C)CCC[C@H](C)[C@H](O)[C@@H](C)C(=O)C(C)(C)[C@@H](O)CC(=O)O1 [PATUPILONE]
- IC50 [1]: 5.27 nM
- IC50 [2]: 1.5 nM
- IC50 [3]: 0.581 nM
- IC50 [4]: 1.76 nM
- IC50 [5]: 14.6 nM
- IC50 [6]: 1.5 nM
- IC50 [7]: > 32 nM
- IC50 [8]: 30.7 nM
- IC50 [9]: > 32 nM
- IC50 [10]: 9.62 nM
- IC50 [11]: 0.846 nM
- IC50 [12]: > 32 nM
- IC50 [13]: > 32 nM
- IC50 [14]: > 32 nM
- IC50 [15]: 7.95 nM
- IC50 [16]: 3.27 nM
- IC50 [17]: 1.05 nM
- IC50 [18]: 9.39 nM
- IC50 [19]: 0.195 nM
- IC50 [20]: 0.215 nM
- IC50 [21]: 3.06 nM
- IC50 [22]: > 32 nM
- IC50 [23]: > 32 nM
- IC50 [24]: 2.18 nM
- IC50 [25]: 18.1 nM
- IC50 [26]: > 32 nM
- IC50 [27]: 3.65 nM
- IC50 [28]: 11.6 nM
- IC50 [29]: > 32 nM
- IC50 [30]: 3.12 nM
- IC50 [31]: 21.2 nM
- IC50 [32]: 12.7 nM
- IC50 [33]: 7.81 nM
- IC50 [34]: > 32 nM
- IC50 [35]: > 32 nM
- IC50 [36]: > 32 nM
- IC50 [37]: > 32 nM
- IC50 [38]: 29.3 nM
- IC50 [39]: 1.62 nM
- IC50 [40]: 0.701 nM
- IC50 [41]: 4.45 nM
- IC50 [42]: 0.156 nM
- IC50 [43]: > 32 nM
- IC50 [44]: 4.1 nM
- IC50 [45]: 3.83 nM
- IC50 [46]: > 32 nM
- IC50 [47]: 22 nM
- IC50 [48]: > 32 nM
- IC50 [49]: 0.411 nM
- IC50 [50]: > 32 nM
- IC50 [51]: 11.9 nM
- IC50 [52]: > 32 nM
- IC50 [53]: 1.69 nM
- IC50 [54]: 2.53 nM
- IC50 [55]: 4.69 nM
- IC50 [56]: 5.1 nM
- IC50 [57]: > 32 nM
